This is an account of results in patent publication US20050233453A1, “6-O-sulfated N-acetylheparosan and hematopoietic stem cell growth auxiliary agent” (SEIKAGAKU CORPORATION, priority 2004, published 2005).

The subject of the assay is plasma. Kind of assay: Measurement of activated partial thromboplastin time (APTT). To be noted: test substance concentration of 100 μg/ml, rat plasma. The protocol: Hundred μl of plasma obtained by centrifuging at 1000×g for 10 minutes blood sampled from descending aorta of a rat with 1/10 volume of 3.2% […] and 100 μl of a different concentration of N-desulfated-N-reacetylated heparin or each 6-O-sulfated-N-acetylheparosan (Fraction I derived from Reaction-A, Fraction II derived from Reaction-A, and Reaction-B Product) were placed in a cup for measurement and the whole was kept at 37° C. for 1 minute. Thereafter, 100 μl of Actin (trade name: Mitsubishi Pharma Corporation) kept at 37° C. beforehand was added thereto, followed by maintenance at the temperature for 2 minutes. Then, 100 μl of a 0.02M calcium chloride solution kept at 37° C. was added and a time required for the occurrence of coagulation from this point was measured by means of an automatic blood coagulation-measuring apparatus (KC-10A; manufactured by Amelung).

In the case of “N-desulfated-N-reacetylated heparin [reference compound]”, the APTT was not below 80 s.
